Target: T1, Human Recombinant Matriptase 2 (Homo sapiens, UniProt Q8IU80)
T1 construct: made in house
T1 sequence (Q8IU80 1-811): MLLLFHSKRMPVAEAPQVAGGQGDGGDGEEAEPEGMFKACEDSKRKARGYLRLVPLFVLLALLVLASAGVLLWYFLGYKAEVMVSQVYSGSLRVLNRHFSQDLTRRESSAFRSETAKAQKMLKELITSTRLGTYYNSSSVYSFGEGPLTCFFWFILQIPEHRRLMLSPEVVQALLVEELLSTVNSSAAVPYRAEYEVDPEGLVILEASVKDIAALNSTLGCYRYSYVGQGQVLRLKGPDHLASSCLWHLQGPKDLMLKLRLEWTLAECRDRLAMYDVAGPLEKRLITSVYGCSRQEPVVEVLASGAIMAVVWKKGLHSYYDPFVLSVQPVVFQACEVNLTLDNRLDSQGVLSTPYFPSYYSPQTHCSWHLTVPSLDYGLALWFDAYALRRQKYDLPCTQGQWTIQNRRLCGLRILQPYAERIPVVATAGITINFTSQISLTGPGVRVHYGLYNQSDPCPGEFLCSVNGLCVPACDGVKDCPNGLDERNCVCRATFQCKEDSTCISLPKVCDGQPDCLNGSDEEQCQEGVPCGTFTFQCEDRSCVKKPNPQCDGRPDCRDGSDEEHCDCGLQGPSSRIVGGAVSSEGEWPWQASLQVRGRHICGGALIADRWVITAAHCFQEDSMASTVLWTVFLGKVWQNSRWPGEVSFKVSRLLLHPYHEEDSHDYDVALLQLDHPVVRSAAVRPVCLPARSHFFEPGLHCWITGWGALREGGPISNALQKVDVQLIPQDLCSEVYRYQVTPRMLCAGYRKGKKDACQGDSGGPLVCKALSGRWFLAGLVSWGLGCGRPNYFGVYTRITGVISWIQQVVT
Assay: Matriptase 2 inhibition, fluorescence based assay (Method I)
Type: biochemical
Conditions: Table A; Ki of Matriptase-2; read-out: Mat-2 Ki
How it was run: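 In-house recombinant enzyme (3.5 nM), preincubated 30 min with compound, then Boc-Gln-Ala-Arg-AMC substrate (62 μM) in 50 mM Tris pH 7.5, 150 mM NaCl, 0.01% gelatin, 1% DMSO, 25 °C. Fluorescence (Ex 360/Em 480 nm) read 60 min after substrate; IC50 from variable-slope sigmoidal fit of % inhibition.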

SMILES | Ki [µM]
CN1CCN[C@@H](COC(=O)c2cc3ccc(CN)nc3n2Cc2cc(NS(=O)(=O)Cc3ccccc3)cc3ccccc23)C1 (racemic) [Compound 41, (4-methylpiperazin-2-yl)methyl 6-(aminometh-yl)-1-{[3-(phenylmeth-ane-sulfonamido)naph-thalen-1-yl]methyl}-1H-pyrrolo[2,3-b]pyridine-2-carboxylate] | ≤ 0.1
CN1CCCC[C@@H]1COC(=O)c1cc2ccc(CN)nc2n1Cc1cc(NS(=O)(=O)Cc2ccccc2)cc2ccccc12 (racemic) [Compound 63, (1-methylpiperidin-2-yl)methyl 6-(aminometh-yl)-1-{[3-(phenylmeth-anesulfonamido)naph-thalen-1-yl]lmethyl}-1H-pyrrolo[2,3-b]pyridine-2-carboxylate] | ≤ 0.1
Cc1cccc(C)c1CS(=O)(=O)Nc1cc(Cn2c(C(=O)NCC3CCN(C)CC3)cc3ccc(CN)nc32)c2ccccc2c1 [Compound 184, 6-(aminomethyl)-1-({3-[(2,6-dimethylphenyl)-methanesulfonamido]-naphthalen-1-yl}meth-yl)-N-[(1-methylpiper-idin-4-yl)methyl]-1H-pyrrolo[2,3-b]pyridine-2-carboxamide] | ≤ 0.1
Cc1cccc(C)c1CS(=O)(=O)Nc1cc(Cn2c(C(=O)NCCN3CCOCC3)cc3ccc(CN)nc32)c2ccccc2c1 [Compound 196, 6-(aminomethyl)-1-({3-[(2,6-dimethylphenyl)-methanesulfonamido]-naphthalen-1-yl}meth-yl)-N-[2-(morpholin-4-yl)ethyl]-1H-pyrrolo-[2,3-b]pyridine-2-car-boxamide] | ≤ 0.1
CC(C)n1cncc1COC(=O)c1cc2ccc(CN)nc2n1Cc1cc(NS(=O)(=O)Cc2ccccc2)cc2ccccc12 [Compound 70, [1-(propan-2-yl)-1H-imidazol-5-yl]methyl 6-(aminomethyl)-1-{[3-(phenylmethanesulfon-amido)naphthalen-1-yl]-methyl}-1H-pyrrolo[2,3-b]pyridine-2-carboxylate] | ≤ 0.1
CN(C)CCOCCOC(=O)c1cc2ccc(CN)nc2n1Cc1cc(NS(=O)(=O)Cc2ccccc2)cc2ccccc12 [Compound 58, 2-[2-(dimethylamino)-ethoxy]ethyl 6-(amino-methyl)-1-{[3-(phenyl-methanesulfonamido)-naphthalen-1-yl]methyl}-1H-pyrrolo[2,3-b]pyr-idine-2-carboxylate] | ≤ 0.1
CCOC(=O)c1cc2ccc(CN)nc2n1Cc1cc(NS(=O)(=O)[C@@H](C)c2ccccc2)cc2ccccc12 (racemic) [Compound 119, ethyl 6-(aminomethyl)-1-{[3-(1-phenylethanesul-fonamido)naphthalen-1-yl]methyl}-1H-pyrrolo-[2,3-b]pyridine-2-car-boxylate] | 0.5 to 3

Same assay, conditions: Table A; Ki of Matriptase-2 given as class symbols; read-out: Mat-2 Ki

SMILES | Ki [µM]
CN(C)Cc1nnc(-c2cc3ccc(CN)nc3n2Cc2cc(NS(=O)(=O)Cc3ccccc3)cc3ccccc23)o1 [Compound 347, N-(4-{[6-(aminomethyl)-2-{5-[(dimethylamino)-methyl]-1,3,4-oxadiazol-2-yl}-1H-pyrrolo[2,3-b]pyridin-1-yl]methyl}-naphthalen-2-yl)-1-phen-ylmethanesulfonamide] | 0.1 to 0.5
COC(=O)NCCNC(=O)c1cc2ccc(CN)nc2n1Cc1cc(NS(=O)(=O)CC[C@@H]2CCCN2)cc2ccccc12 [Compound 258, methyl N-(2-{[6-(amino-methyl)-1-[(3-{2-[(2S)-pyrrolidin-2-yl]ethane-sulfonamido}naphthalen-1-yl)methyl]-1H-pyr-rolo[2,3-b]pyridin-2-yl]-formamido}ethyl)car-bamate] | 0.1 to 0.5
NCc1ccc2cc(C(=O)O)n(Cc3cc(NC(=O)NCC4CCN(S(=O)(=O)C5CC5)CC4)cc4ccccc34)c2n1 [Compound 292, 6-(aminomethyl)-1-({3-[({[1-(cyclopropanesul-fonyl)piperidin-4-yl]-methyl}carbamoyl)-amino]naphthalen-1-yl}-methyl)-1H-pyrrolo[2,3-b]pyridine-2-carboxylic acid] | 0.1 to 0.5
NCc1ccc2cc(C(=O)O)n(Cc3cc(NS(=O)(=O)Cc4ccccc4)cc4c3CCCC4)c2n1 [Compound 285, 6-(aminomethyl)-1-((3-((phenylmethyl)sulfonamido)-5,6,7,8-tetrahydronaphthalen-1-yl)methyl)-1H-pyrrolo[2,3-b]pyridine-2-carboxylic acid] | 0.1 to 0.5
CC(c1ccccc1)S(=O)(=O)Nc1cc(Cn2c(C(=O)OCC3CCN(C)CC3)cc3ccc(CN)cc32)c2ccccc2c1 (racemic) [Compound 380, (1-methylpiperidin-4-yl)-methyl 6-(aminomethyl)-1-{[3-(1-phenylethane-sulfonamido)naphthalen-1-yl]methyl}-1H-indole-2-carboxylate] | ≤ 0.1
Cc1conc1CS(=O)(=O)Nc1cc(Cn2c(C(=O)O)cc3ccc(CN)nc32)c2ccccc2c1 [Compound 243, 6-(aminomethyl)-1-({3-[(4-methyl-1,2-oxazol-3-yl)methanesulfonamido]-naphthalen-1-yl}methyl)-1H-pyrrolo[2,3-b]pyr-idine-2-carboxylic acid] | 0.1 to 0.5
CN1CCC(COC(=O)c2cc3ccc(CN)nc3n2Cc2cc(NS(=O)(=O)CC34CC(F)(C3)C4)cc3ccccc23)CC1 [Compound 248, (1-methylpiperidin-4-yl)-methyl 6-(aminomethyl)-1-{[3-({3-fluorobicyclo-[1.1.1]pentan-1-yl}-methanesulfonamido)-naphthalen-1-yl]methyl}-1H-pyrrolo[2,3-b]pyr-idine-2-carboxylate] | 0.5 to 3
CC[C@H]1CCCCN1C(=O)Nc1cc(Cn2c(C(=O)O)cc3ccc(CN)nc32)c2ccccc2c1 (racemic) [Compound 306, rac-6-(aminomethyl)-1-[(3-{[(2R)-2-ethylpiper-idine-1-carbonyl]amino}-naphthalen-1-yl)methyl]-1H-pyrrolo[2,3-b]pyr-idine-2-carboxylic acid] | 0.5 to 3
CN1CCC[C@@H]1COC(=O)Nc1cc(Cn2c(C(=O)O)cc3ccc(CN)nc32)c2ccccc2c1 [Compound 336, 6-(aminomethyl)-1-({3-[({[(2R)-1-methylpyr-rolidin-2-yl]methoxy}-carbonyl)amino]naph-thalen-1-yl}methyl)-1H-pyrrolo[2,3-b]pyr-idine-2-carboxylic acid] | 0.1 to 0.5
CN(C)C(=O)N1CC[C@H](OC(=O)Nc2cc(Cn3c(C(=O)O)cc4ccc(CN)nc43)c3ccccc3c2)C1 [Compound 341] | 0.5 to 3
NCc1ccc2cc(C(=O)O)n(Cc3cc(NS(=O)(=O)C[C@H]4CCCO4)cc4ccccc34)c2n1 (racemic) [Compound 257, rac-6-(aminomethyl)-1-[(3-{[(2R)-oxolan-2-yl]methanesulfonamido}-naphthalen-1-yl)methyl]-1H-pyrrolo[2,3-b]pyr-idine-2-carboxylic acid] | 0.1 to 0.5

Same assay, conditions: Table B; Human Recombinant Matriptase 2, 3.5 nM enzyme, 62 μM substrate, 30 mins preincubation; read-out: Mean Ki

SMILES | Ki [µM]
Cc1cccc(C)c1CS(=O)(=O)Nc1cc2c(c(Cn3c(C(=O)OCC4CCN(C)CC4)cc4ccc(CN)nc43)c1)CCCC2 [Compound 2.43] | ≤ 0.1
Cc1cccc(C)c1CS(=O)(=O)Nc1cc2c(c(Cn3c(C(=O)OCc4cncn4C(C)(C)C)cc4ccc(CN)nc43)c1)CCCC2 [Compound 2.42] | 0.1 to 0.5
CN1CCC(COC(=O)c2cc3ccc(CN)nc3n2CC(NS(=O)(=O)Cc2ccccc2)c2ccccc2)CC1 (stereo not drawn) [Compound 2.37] | > 3
